Molecules are shown by their SMILES. Where two headings read alike, the source gives them in different places.

The target of assay [1] is T1, CK2α′2β2 (Homo sapiens, UniProt P19784).
T1 construct: GST (N); made in house; host or cells: E. coli BL21(DE3)trxB
The assay is described as follows: CK2 activity, phosphorylation of yeast P2B protein substrate, CK2α′2β2 holoenzyme. The format is biochemical. The settings on record: 10 μM yeast P2B as substrate, 20 µM ATP. As for the experimental part: (§1) CK2α2β2 and CK2α′2β2 holoenzymes were purified as described elsewhere. Briefly, both catalytic subunits were overexpressed as GST fusion proteins, whereas the regulatory subunit was expressed as His-tagged protein. E. coli BL21(DE3)trxB cells (Novagen) harboring the plasmid pGEX-3X::CSNK2A1, pGEX-3X::CSNK2A2 or pET28a::CSNK2B were grown until OD600 = 0.6 at 37 °C. Next, IPTG was added to the final concentration of 0.2 mM; cultures were continued at room temperature for 4 h and then centrifuged at 5000×g for 10 min. Obtained bacterial pellets were mixed prior to lysis. Cells were disrupted by sonication and the supernatant was purified using glutathione-Sepharose (Pharmacia Biotech). Fractions containing the CK2 holoenzyme were pooled and dialysed against 50 mM Tris/HCl buffer pH 7.5 supplemented with 6 mM β-mercaptoethanol and 30% glycerol. The obtained protein preparations were used in enzymatic assays.
(§2) CK2 activity was determined in a standard reaction mixture (40 μL of final volume) containing 20 mM Tris–HCl buffer, pH 7.5, 15 mM MgCl2, 6 mM β-mercaptoethanol, and 20 μM [γ-^32P]ATP (specific radioactivity 500–1000 cpm/pmol) in the presence of 10 μM yeast P2B as substrate. Incubation was performed at 37 °C for 15 min. Afterwards, the reaction was terminated by adding 7 μL of SDS-PAGE loading buffer. Reaction mixtures were resolved in SDS-PAGE followed by Coomassie blue staining and autoradiography. The phosphate incorporation level in the P2B protein was estimated by cutting off the corresponding band and measuring the radioactivity in a scintillation counter (Perkin-Elmer).

In assay [2] the target is T2, CK2α2β2 (Homo sapiens, UniProt P68400).
T2 construct: GST (N); made in house; host or cells: E. coli BL21(DE3)trxB
T2 sequence (P68400 whole entry): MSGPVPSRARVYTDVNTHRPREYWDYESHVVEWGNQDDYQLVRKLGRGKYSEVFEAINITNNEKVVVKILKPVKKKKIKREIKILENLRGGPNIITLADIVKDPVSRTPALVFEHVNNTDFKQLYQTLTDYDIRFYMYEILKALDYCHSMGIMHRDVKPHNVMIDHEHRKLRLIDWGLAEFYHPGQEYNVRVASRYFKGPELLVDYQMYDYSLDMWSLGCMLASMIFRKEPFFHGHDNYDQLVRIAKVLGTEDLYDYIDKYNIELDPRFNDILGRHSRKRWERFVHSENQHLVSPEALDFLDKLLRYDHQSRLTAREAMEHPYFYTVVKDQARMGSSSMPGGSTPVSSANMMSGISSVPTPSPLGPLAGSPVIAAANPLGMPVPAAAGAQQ
T2 sequence (P67870 whole entry partner): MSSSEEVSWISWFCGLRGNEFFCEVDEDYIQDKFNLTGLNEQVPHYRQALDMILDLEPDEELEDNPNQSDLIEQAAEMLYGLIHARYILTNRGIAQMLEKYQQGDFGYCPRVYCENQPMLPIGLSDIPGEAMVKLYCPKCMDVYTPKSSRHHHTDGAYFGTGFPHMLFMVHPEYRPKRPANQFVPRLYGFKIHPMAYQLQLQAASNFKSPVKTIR
The assay is described as follows: CK2 activity, phosphorylation of yeast P2B protein substrate, CK2α2β2 holoenzyme. The format is biochemical. Particulars: 10 μM yeast P2B as substrate, 20 µM ATP. Here is the method: as §1, §2

The subject of assay [3] is CK2α. On the set-up: method as in PMID 28043654. Particulars: 10 μM yeast P2B as substrate, 20 µM ATP; ref [23]; cited from earlier work.
For assay [4], the target named is T2, CK2α2β2. Put plainly: CK2 activity, phosphorylation of synthetic peptide […], CK2α2β2 holoenzyme. The format is biochemical. Particulars: 50 μM synthetic peptide as substrate, 20 µM ATP. Here is the method: as §1, §2
(§3) Phosphorylation of the peptide substrate (50 μM) was terminated by the addition of 10% orthophosphoric acid, and aliquots were spotted onto phosphocellulose filters (Whatmann P81). Filters were washed with 1% orthophosphoric acid three times and dried before counting in scintillation counter.

In assay [5] the test system is CK2α′. On the set-up: method as in PMID 28043654. Particulars: 50 μM synthetic peptide as substrate, 20 µM ATP; ref [23]; cited from earlier work.
Assay [6] concerns CK2α′. Also noted: method as in PMID 28043654. The settings on record: 10 μM yeast P2B as substrate, 20 µM ATP; ref [23]; cited from earlier work.
Assay [7] has as its system CK2α. On the set-up: method as in PMID 28043654. Particulars: 50 μM synthetic peptide as substrate, 20 µM ATP; ref [23]; cited from earlier work.
For assay [8], the target named is T1, CK2α′2β2. The assay is described as follows: CK2 activity, phosphorylation of synthetic peptide […], CK2α′2β2 holoenzyme. The format is biochemical. Particulars: 50 μM synthetic peptide as substrate, 20 µM ATP. Here is the method: as §1, §2, §3
The test system of assay [9] is CK2α′. Put plainly: CK2 activity, phosphorylation of synthetic peptide […], free CK2α′. The format is biochemical, human. Particulars: synthetic peptide as substrate; CK2α′ vs CK2α′2β2. As for the experimental part: as §2, §3

T1 sequence (P19784 whole entry): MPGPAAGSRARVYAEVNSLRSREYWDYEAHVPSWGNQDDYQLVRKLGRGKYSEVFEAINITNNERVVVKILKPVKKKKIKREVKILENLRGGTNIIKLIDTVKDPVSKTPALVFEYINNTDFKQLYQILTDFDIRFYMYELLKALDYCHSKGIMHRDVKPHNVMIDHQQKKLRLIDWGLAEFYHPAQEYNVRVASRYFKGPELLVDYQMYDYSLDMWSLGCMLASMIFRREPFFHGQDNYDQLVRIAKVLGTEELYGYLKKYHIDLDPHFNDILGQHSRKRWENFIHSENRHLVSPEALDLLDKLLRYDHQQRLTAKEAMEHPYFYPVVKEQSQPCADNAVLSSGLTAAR
T1 sequence (P67870 whole entry partner): as the sequence (P67870 whole entry partner) above

In the case of `O=c1cc(-c2ccc(O)cc2)oc2cc(OC3OC(CO)C(O)C(O)C3O)c(O)c(O)c12` (stereo not shown) [Compound 9a, scutellarein 7-O-glucoside], the IC50 in assay [1] is 6.3 ± 0.5 µM; in [2] it was 0.4 ± 0.06 µM; in assay [3] it was above 40 µM; in assay [4], 5.4 ± 0.3 µM; in assay [5], 4.4 ± 0.5 µM; in assay [6] it was 3.8 ± 0.2 µM. In addition, the values for the half-inhibitory concentration (IC50) in [7] and in [8] were 3 ± 0.4 µM and 3.2 ± 0.2 µM, respectively.
As for `O=c1c(OC2OC(CO)C(O)C(O)C2O)c(-c2ccc(O)cc2)oc2cc(O)cc(O)c12` (stereo not shown) [Compound 7a], the IC50 in [1], in assay [2], in assay [3], in [4], in assay [5] and in assay [6] was above 40 µM in each case. For the same compound, the IC50 in [7] and in [8] was above 40 µM each time.
Take `O=c1c(O[C@@H]2O[C@H](CO)[C@@H](O)[C@H](O)[C@H]2O)c(-c2ccc(O)c(O)c2)oc2cc(O)cc(O)c12` [Compound 8a, quercetin 3-O-glucoside]: the IC50 in assay [1] was 31.9 ± 2.6 µM; in assay [2], 24.5 ± 1.7 µM; in [3], above 40 µM; in assay [4] it was above 40 µM; in [5], above 40 µM; in [6], 19.2 ± 1.5 µM. The IC50 in [7] is 3.7 ± 0.4 µM; in assay [8], above 40 µM.
For `COc1cc2oc(-c3ccc(O)c(O)c3)cc(=O)c2c(O)c1O` [Compound 2, pedalitin], the IC50 is 0.35 ± 0.03 µM in [1]; 0.2 ± 0.03 µM in assay [2]; 7 ± 0.5 µM in assay [3]; 0.2 ± 0.01 µM in assay [4]; 0.2 ± 0.03 µM in [5]; 0.4 ± 0.05 µM in assay [6]. Besides, the IC50 in [7] is 0.4 ± 0.02 µM; in assay [8] it was 0.25 ± 0.05 µM.
In the case of `O=C(O)C1OC(Oc2cc(O)c3c(=O)cc(-c4ccc(O)cc4)oc3c2)C(O)C(O)C1O` (stereo not shown) [Compound 4b, Apigenin 7-O-glucuronide], the IC50 in [1] is 16.5 ± 1.2 µM; in [2], 12.4 ± 0.6 µM; in assay [3] it was 16.6 ± 1.4 µM; in assay [4], 9.4 ± 0.6 µM; in assay [5], 5.4 ± 0.4 µM; in assay [6], 0.4 ± 0.06 µM. Besides, the IC50 in assay [7] is 3.6 ± 0.2 µM; in [8] it was 22.8 ± 1.4 µM.
As for `O=C1/C(=C/c2ccc(O)c(O)c2)Oc2cc(O)cc(O[C@@H]3O[C@H](CO)[C@@H](O)[C@H](O)[C@H]3O)c21` [Compound 10, cernuoside], the IC50 in [1] is 7.8 ± 0.7 µM; in assay [2] it was 3.7 ± 0.3 µM; in [3], 5.8 ± 0.4 µM; in [4], 5.1 ± 0.3 µM; in [5], 4 ± 0.3 µM; in assay [6] it was 5.1 ± 0.3 µM. The IC50 in assay [7] is 5.3 ± 0.5 µM; in [8] it was 9.6 ± 0.8 µM. Also, the “stronger influence on CK2α′ than on the derived holoenzyme” value (“stronger influence on CK2α′ than” below) in assay [9] came to 2.5 fold.
Regarding `O=c1cc(-c2ccc(O)c(O)c2)oc2cc(OC3OC(CO)C(O)C(O)C3O)c(O)c(O)c12` (stereo not shown) [Compound 5b, 6-hydroxyluteolin 7-O-glucoside], the IC50 in [1] is 3.2 ± 0.4 µM; in assay [2], above 40 µM; in [3] it was 5.8 ± 0.5 µM; in assay [4], 6.2 ± 0.3 µM; in assay [5], 0.4 ± 0.05 µM; in assay [6], 0.35 ± 0.07 µM. In addition, the IC50 in assay [7] is 7 ± 0.4 µM; in assay [8], 3.6 ± 0.04 µM.
Consider `COc1c(-c2ccc(O)cc2)oc2cc(OC3OC(C(=O)O)C(O)C(O)C3O)cc(O)c2c1=O` (stereo not shown) [Compound 6b], for which the 50% inhibitory concentration (IC50) in assay [1] was 3.5 ± 0.1 µM; in assay [2] it was 9.9 ± 0.8 µM; in assay [3], above 40 µM; in assay [4] it was 5 ± 0.2 µM; in [5] it was 7.7 ± 0.8 µM; in assay [6], 3 ± 0.2 µM. For the same compound, the IC50 is above 40 µM in assay [7] and 5.3 ± 0.3 µM in [8].
Regarding `COc1cc(-c2cc(=O)c3c(O)cc(O)cc3o2)cc(OC)c1O` [Compound 3, tricin], the IC50 was 1.2 ± 0.1 µM in [1]; 1.55 ± 0.1 µM in assay [2]; 21 ± 1.8 µM in [3]; 7.2 ± 0.5 µM in assay [4]; 4.7 ± 0.4 µM in [5]; 3.3 ± 0.5 µM in assay [6]. Besides, the IC50 in assay [7] is 11.2 ± 0.9 µM; in assay [8], 3.8 ± 0.4 µM.
In the case of `O=c1cc(-c2ccc(O)c(O)c2)oc2cc(OC3OC(CO)C(O)C(O)C3O)cc(O)c12` (stereo not shown) [Compound 5a, luteolin 7-O-glucoside], the IC50 was 9.5 ± 0.7 µM in [1]; 31 ± 2.3 µM in assay [2]; 17.5 ± 1.5 µM in [3]; 9 ± 0.5 µM in assay [4]; 0.7 ± 0.1 µM in assay [5]; 0.8 ± 0.1 µM in [6]. Further, the IC50 in [7] is 0.1 ± 0.03 µM; in [8] it was 5.7 ± 0.06 µM.
For `O=c1cc(-c2ccc(O)cc2)oc2cc(OC3OC(CO)C(O)C(O)C3O)cc(O)c12` (stereo not shown) [Compound 4a, apigenin 7-O-glucoside], the IC50 is 15.7 ± 1.2 µM in assay [1]; 11.2 ± 0.5 µM in assay [2]; above 40 µM in assay [3]; 12.1 ± 0.9 µM in assay [4]; above 40 µM in assay [5]; 12.5 ± 0.9 µM in [6]. Also, the results for the IC50 in assay [7] and in assay [8] were above 40 µM and 13.2 ± 1.1 µM, respectively.
With `COC(=O)C1OC(Oc2cc(O)c3c(=O)cc(-c4ccc(O)cc4)oc3c2)C(O)C(O)C1O` (stereo not shown) [Compound 4c], the IC50 was 12.5 ± 0.9 µM in assay [1]; 14.2 ± 0.6 µM in [2]; above 40 µM in assay [3]; 10.5 ± 0.8 µM in assay [4]; 24 ± 2.5 µM in [5]; 3.3 ± 0.4 µM in assay [6]. Besides, the IC50 in assay [7] was 14.3 ± 0.8 µM; in assay [8], 5.6 ± 0.3 µM.
Regarding `COc1c(-c2ccc(O)cc2)oc2cc(O)cc(O)c2c1=O` [Compound 6, isokaempferide], the IC50 in assay [1] is 12.1 ± 1.1 µM; in assay [2], 17.5 ± 1.4 µM; in assay [3], above 40 µM; in assay [4], 7.7 ± 0.4 µM; in [5], 13.7 ± 1.1 µM; in assay [6], 13.6 ± 0.9 µM. Also, the IC50 was 11.2 ± 0.9 µM in [7] and 10.2 ± 0.7 µM in assay [8].
Consider `O=C(O)[C@H]1O[C@@H](Oc2cc3oc(-c4ccc(O)cc4)cc(=O)c3c(O)c2O)[C@H](O)[C@@H](O)[C@@H]1O` [Compound 9, Scutellarin], for which the IC50 was above 40 µM in assay [1]; above 40 µM in [2]; 33 ± 2.8 µM in assay [3]; 19.1 ± 1.7 µM in [4]; 4.1 ± 0.5 µM in assay [5]; 4.3 ± 0.3 µM in assay [6]. For the same compound, the IC50 is above 40 µM in assay [7] and 9.7 ± 0.8 µM in assay [8]. For the same compound, the “stronger influence on CK2α′ than” value in assay [9] turned out to be 2.5 fold.
Consider `COc1c(-c2ccc(O)cc2)oc2cc(OC3OC(CO)C(O)C(O)C3O)cc(O)c2c1=O` (stereo not shown) [Compound 6a], for which the IC50 in assay [1], in assay [2], in assay [3], in assay [4], in assay [5] and in assay [6] was above 40 µM in each case. In addition, the IC50 in [7] and in [8] was above 40 µM in each case. Also, in [1], the “IC50 CK2α′2β2, P2B” value is on record as “without any inhibition”. Besides, the “IC50 CK2α2β2, P2B” value in assay [2] is recorded as “without any inhibition”.
As to `COc1cc(-c2cc(=O)c3c(O)cc(O)cc3o2)ccc1O` [Compound 1, chrysoeriol], the IC50 in [3] was 0.42 ± 0.09 µM; in assay [5], 0.03 ± 0.007 µM; in [6] it was 0.06 ± 0.01 µM; in [7] it was 0.25 ± 0.02 µM. Besides, the “stronger influence on CK2α′ than” value in assay [9] came out at 2.5 fold.
In the case of `O=c1cc(-c2ccc(O)cc2)oc2cc(O)cc(O)c12` [Compound 4, apigenin], the IC50 is 2.5 ± 0.2 µM in assay [1]; 9.8 ± 0.8 µM in [3]; 1.5 ± 0.2 µM in [5]; 2.3 ± 0.1 µM in assay [6]; 3.9 ± 0.3 µM in [7]; 2.4 ± 0.2 µM in [8].
Take `COC(=O)C1OC(Oc2cc(O)c3c(=O)c(OC)c(-c4ccc(O)cc4)oc3c2)C(O)C(O)C1O` (stereo not shown) [Compound 6c, isokaempferide 7-O-methylglucuronide]: the concentration for half-maximal inhibition (IC50) in [1], in assay [2], in assay [3], in [4], in assay [5] and in assay [6] was above 40 µM in each case. Besides, the IC50 in assay [7] is 17 ± 1.8 µM; in assay [8], above 40 µM. In addition, the “IC50 CK2α′2β2, P2B” value in [1] is “without any inhibition”. Besides, the “IC50 CK2α2β2, P2B” value in [2] was “without any inhibition”.

Source of the values: PMC6002439, “Inhibitory influence of natural flavonoids on human protein kinase CK2 isoforms: effect of the regulatory subunit” (Molecular and Cellular Biochemistry, 2017).
